Source: patent US20210290513A1, “COMPOSITION COMPRISING KAKKALIDE” (LG HOUSEHOLD & HEALTH CARE LTD., priority 2020, published 2021)

Assays:
Assay type in all cases: cell-based
[1] = system: B-16 mouse melanoma cell; test: Total melanin amount in mouse melanoma cell culture (brightening effect); conditions: B16, 72 h, B-16 melanoma cells cultured three days, vs negative control (DMSO), read-out: Inhibition rate (%) of melanin production
Experimental: In order to evaluate a brightening effect according to inhibition of melanogenesis, an extract was added to a mouse melanoma cell (B-16 mouse melanoma cell) culture, and the total amount of melanin was measured according to a method described in Lotan R. et al. (Cancer Res. 40:3345-3350, 1980). For this experiment, toxicity with respect to the mouse melanoma cells was first evaluated, and the brightening effect was evaluated at a concentration not inducing toxicity. Dimethyl sulfoxide (DMSO) was used as a negative control, and arbutin was used as a positive control.
Specifically, A compound of Formula 1 was added to a medium of each sample so that the final concentration of the compound of Formula 1 is 1 ppm, 10 ppm, 100 ppm, or 500 ppm, and Daidzein was also added to the medium so that the final concentration of Daidzein is 1 ppm, 10 ppm, 100 ppm, or 500 ppm. Arbutin was added to the medium so that the final concentration was 100 ppm. In each of the mediums, melanoma cells were cultured for three days. Subsequently, the cells were treated with trypsin, detached from the culture plate, and centrifuged, and then melanin was extracted. The detached cells were boiled for 10 minutes by adding 1 ml of a sodium hydroxide solution (1 N concentration) so that melanin was dissolved, and by measuring an absorbance at 400 nm using a spectrophotometer, the amount of melanin production was measured.
The amount of melanin was measured by a method of indicating absorbance per unit cell count (1×10^6 cells), The amount of melanin production in each experimental group with respect to the negative control was calculated as a relative value, and the value obtained by subtracting the amount of melanin production in each experimental group from 100% of the melanin production amount in the negative control group was expressed as the inhibition rate (%). The experiment was performed three times for each sample, and averages of measurements were obtained.

[2] = system: Wnt/β-catenin signaling pathway; test: Wnt/β-catenin signaling pathway activation, TOPflash luciferase reporter in human dermal papilla cells; conditions: untreated control = 100
Experimental: The effect of the compound of Chemical Formula 1 on the activation of the Wnt/β-catenin signaling pathway was investigated using TOPflash (T-cell factor reporter plasmid) Kit (Millipore, USA). Human dermal papilla cells were inoculated into a 24-well plate at 2×10^5/well, cultured for 24 hours, treated with the compound of Chemical Formula 1 so that the concentration was 10 μg/ml, and then additionally cultured for 15 hours, and firefly luciferase activity was subsequently measured using a dual luciferase assay kit (Promega, USA).
In order to accurately measure the luciferase activity, the experiment was performed three times for each sample, an increase rate (%) was calculated as a ratio of activity relative to that of a control was calculated, and the results are shown in Table 5. The negative control was an untreated group. As a positive control, 6-bromoindirubin-3′-oxime (BIO) was used, and BIO is a material known to inhibit GSK-3 in the Wnt signaling system.

[3] = system: type I collagen synthesis in human-derived fibroblasts; test: Type I collagen synthesis in human-derived fibroblasts (PICP EIA kit); conditions: for Increase rate (%) of collagen synthesis: relative to negative control; for Amount of type I collagen production: negative control 151.4
Experimental: A sample was added to a human-derived fibroblast culture medium to evaluate the effect of promoting type I collagen synthesis at the cellular level. The synthesized collagen was quantified using a Procollagen Type I C-Peptide Enzyme Immunoassay kit (PICP EIA kit). In order to measure the amount of collagen synthesis, a compound of Formula 1 was added to the fibroblast culture medium (Dulbecco's Modified Eagle Medium (DMEM)) so that the final concentration of compound of Formula 1 was 0.1 ppm, 1 ppm, or 10 ppm in each medium, and Genistein was also added to the fibroblast culture medium (Dulbecco's Modified Eagle Medium (DMEM)) so that final concentration of Genistein was 0.1 ppm, 1 ppm, or 10 ppm. After culturing for 48 hours, and then the culture medium was taken, and, by using the PICP EIA kit, the degree of type I collagen synthesis at each concentration was measured at 450 nm using a spectrophotometer. In order to compare the effect, the culture medium of fibroblasts without sample treatment was used as a negative control, and 10 ng/ml TGF-β was used as a positive control, and the degrees of collagen synthesis therein were measured in the same manner as for testing an added sample. A rate of increase in collagen synthesis was calculated as a ratio of the amount of collagen production relative to that of the negative control, and the results are shown in Table 2. The experiment was performed three times for each sample, and averages of measurements were obtained.

[4] = system: HAS2; test: HAS2 mRNA expression in human keratinocytes (real-time quantitative PCR); conditions: HaCaT, negative control normalized to 1.0
Experimental: (§1) Human keratinocytes (HaCaT) were dispensed into a 6-well cell culture plate at 2×10^5 cells/well and cultured for 24 hours in a DMEM medium containing 10% fetal bovine serum (FBS). The medium was replaced with a DMEM medium without 10% FBS and calcium (Ca^2+), and the cultured cells were treated with the compound of Chemical Formula 1, which had been diluted with a medium, for 24 hours. After the 24 hours had passed, the cells were recovered and then washed with a cold phosphate buffer solution (PBS), and total RNA was extracted using an RNeasy mini kit (Qiagen, Germany). A reverse transcription reaction was performed using RNA and a cDNA Synthesis kit (PhileKorea, Korea). The synthesized cDNA was diluted with water after being quantified, and the same amount thereof was used for all reactions. HAS2, HAS3, and AQP3 primers from a TaqMan® Universal Master Mix II and TaqMan® Gene Expression Assays (Thermo Fisher, USA) were used. Real-time quantitative polymerase chain reaction (PCR) was carried out using a StepOnePlus® Real-time PCR System (Applied Biosystems, USA). The experimental results were obtained through calculation performed by a ΔΔCt method based on a housekeeping gene glyceraldehyde-3-phosphate dehydrogenase (GAPDH). The levels of HAS2, HAS3, and AQP3 gene expression in each sample were quantified based on the mRNA expression level (normalized to 1.0) of the negative control to which the sample was not added, and the results are shown in Table 3. As a positive control, 10 ng/ml EGF recombinant human protein (Life Technologies, USA) was used.

[5] = system: HAS3; test: HAS3 mRNA expression in human keratinocytes (real-time quantitative PCR); conditions: HaCaT, negative control normalized to 1.0
Experimental: as §1

[6] = system: AQP3; test: AQP3 mRNA expression in human keratinocytes (real-time quantitative PCR); conditions: HaCaT, negative control normalized to 1.0
Experimental: as §1

[7] = system: A. niger; test: Minimum inhibitory concentration, serial dilution method; conditions: PDB medium, about 10^6/well
Experimental: (§2) This experiment was carried out by a serial dilution method and a method of measuring a minimum inhibitory concentration (MIC), using an MHB2 medium (for bacteria) or a PDB medium (for fungi). The bacteria or fungi were inoculated at about 10^6/well.

[8] = system: C. albicans; test: as above; conditions: PDB medium, about 10^6/well
Experimental: as §2

[9] = system: E. coli; test: as above; conditions: MHB2 medium, about 10^6/well
Experimental: as §2

[10] = system: P. aeruginosa; test: as above; conditions: MHB2 medium, about 10^6/well
Experimental: as §2

[11] = system: Pityrosporum ovale; test: as above; conditions: about 10^6/well
Experimental: as §2

[12] = system: S. aureus; test: as above; conditions: MHB2 medium, about 10^6/well
Experimental: as §2

[13] = system: dermal papilla cells; test: Dermal papilla cell proliferation (CCK-8); conditions: 100 ppm, CCK-8 on day 5, Control (DMEM) = 1.00
Experimental: This experiment was performed using the following media 1) to 3):
1) DMEM (10% FBS, 1% P/S)
2) Depletion medium: 5% charcoal-stripped, FBS-containing, phenol red-free DMEM
3) Serum-free (SF) medium: DMEM (1% P/S).
On days 0 to 5, the following various experiments were performed to confirm a dermal papilla cell proliferation effect.
Day 0: At 10 a.m., cells were seeded (5,000 cells/well)
Day 1: At 10 a.m., after changing the depletion medium, cells were cultured for 24 hours.
Day 2: At 10 a.m., CCK-8 was measured (average initial value: 0.586) before the cells were treated with a sample, and subsequently, cells were treated with a sample.

OC[C@H]1O[C@@H](Oc2ccc(O)cc2)[C@H](O)[C@@H](O)[C@@H]1O [Arbutin, arbutin]
inhibition at 100 ppm [1]: 56%

O=C1Nc2cc(Br)ccc2/C1=C1/Nc2ccccc2/C1=N\O [BIO, 6-bromoindirubin-3′-oxime]
Increase rate (%) of luciferase activity ([2]; 1 μM, positive control): 153%

COc1ccc(-c2coc3cc(O[C@@H]4O[C@H](CO[C@@H]5OC[C@@H](O)[C@H](O)[C@H]5O)[C@@H](O)[C@H](O)[C@H]4O)c(OC)c(O)c3c2=O)cc1 [Chemical Formula 1, kakkalide]
inhibition at 1 ppm [1]: 35.3% | inhibition at 10 ppm [1]: 48% | inhibition at 100 ppm [1]: 57.6% | inhibition at 500 ppm [1]: 68.4% | Increase rate (%) of collagen synthesis ([3]; 0.1 ppm, 48 hours): 4.19% | Amount of type I collagen production ([3]; 0.1 ppm, 48 hours): 157.74 ng/mL | Increase rate (%) of collagen synthesis ([3]; 1 ppm, 48 hours): 12.56% | Amount of type I collagen production ([3]; 1 ppm, 48 hours): 170.41 ng/mL | Increase rate (%) of collagen synthesis ([3]; 10 ppm, 48 hours): 16.07% | Amount of type I collagen production ([3]; 10 ppm, 48 hours): 175.72 ng/mL | Increased HAS2 mRNA amount ([4]; 10 ppm, 24 hours): 2.28 | Increased HAS2 mRNA amount ([4]; 100 ppm, 24 hours): 6.64 | Increased HAS3 mRNA amount ([5]; 10 ppm, 24 hours): 3.97 | Increased HAS3 mRNA amount ([5]; 100 ppm, 24 hours): 5.23 | Increased AQP3 mRNA amount ([6]; 10 ppm, 24 hours): 1.75 | Increased AQP3 mRNA amount ([6]; 100 ppm, 24 hours): 4.17 | Minimum inhibitory concentration (%) A. niger [7]: 0.1% | Minimum inhibitory concentration (%) C. albicans [8]: 0.05% | Minimum inhibitory concentration (%) E. coli [9]: 0.05% | Minimum inhibitory concentration (%) P. aeruginosa [10]: 0.05% | Minimum inhibitory concentration (%) Pityrosporum ovale [11]: 0.0003% | Minimum inhibitory concentration (%) S. aureus [12]: 0.01% | Increase rate (%) of luciferase activity ([2]; 10 μg/ml, 15 hours): 160% | Average (ratio) dermal papilla cell proliferation [13]: 1.34

O=c1c(-c2ccc(O)cc2)coc2cc(O)ccc12 [Daidzein]
inhibition at 1 ppm [1]: 18.7% | inhibition at 10 ppm [1]: 16.4% | inhibition at 100 ppm [1]: 20.8% | inhibition at 500 ppm [1]: 30.2%

O=c1c(-c2ccc(O)cc2)coc2cc(O)cc(O)c12 [Genistein]
Increase rate (%) of collagen synthesis ([3]; 0.1 ppm, 48 hours): 2.53% | Amount of type I collagen production ([3]; 0.1 ppm, 48 hours): 155.24 ng/mL | Increase rate (%) of collagen synthesis ([3]; 1 ppm, 48 hours): 4.85% | Amount of type I collagen production ([3]; 1 ppm, 48 hours): 158.75 ng/mL | Increase rate (%) of collagen synthesis ([3]; 10 ppm, 48 hours): 8.59% | Amount of type I collagen production ([3]; 10 ppm, 48 hours): 165.93 ng/mL | Increased HAS2 mRNA amount ([4]; 10 ppm, 24 hours): 1.06 | Increased HAS2 mRNA amount ([4]; 100 ppm, 24 hours): 2.74 | Increased HAS3 mRNA amount ([5]; 10 ppm, 24 hours): 2.86 | Increased HAS3 mRNA amount ([5]; 100 ppm, 24 hours): 3.34 | Increased AQP3 mRNA amount ([6]; 10 ppm, 24 hours): 1.09 | Increased AQP3 mRNA amount ([6]; 100 ppm, 24 hours): 2.47 | Minimum inhibitory concentration (%) A. niger [7]: 0.2% | Minimum inhibitory concentration (%) C. albicans [8]: 0.08% | Minimum inhibitory concentration (%) E. coli [9]: 0.1% | Minimum inhibitory concentration (%) P. aeruginosa [10]: 0.07% | Minimum inhibitory concentration (%) Pityrosporum ovale [11]: 0.0005% | Minimum inhibitory concentration (%) S. aureus [12]: 0.03% | Increase rate (%) of luciferase activity ([2]; 10 μg/ml, 15 hours): 140% | Average (ratio) dermal papilla cell proliferation [13]: 1.10

EGF: EGF recombinant human protein (Life Technologies, USA), positive control
Increased HAS2 mRNA amount ([4]; 10 ng/ml, positive control): 16.42 | Increased HAS3 mRNA amount ([5]; 10 ng/ml, positive control): 5.24 | Increased AQP3 mRNA amount ([6]; 10 ng/ml, positive control): 1.09

TGF-β
Increase rate (%) of collagen synthesis ([3]; 10 ng/ml, positive control): 13.84% | Amount of type I collagen production ([3]; 10 ng/ml, positive control): 172.35 ng/mL

zinc pyrithione
Minimum inhibitory concentration (%) A. niger [7]: 0.02% | Minimum inhibitory concentration (%) C. albicans [8]: 0.02% | Minimum inhibitory concentration (%) E. coli [9]: 0.002% | Minimum inhibitory concentration (%) P. aeruginosa [10]: 0.002% | Minimum inhibitory concentration (%) Pityrosporum ovale [11]: 0.0002% | Minimum inhibitory concentration (%) S. aureus [12]: 0.001%
